Columns and labels:
[1] = Formation of 1,5-cz-[Ln(Lig)] from Lig and Ln^III ions (metal dependent click-zip), MOPS/NaOH buffer pH 7.0, analytical HPLC (Charts 1, 2); conditions: MOPS/NaOH buffer pH 7.0
[2] = Formation of 1,5-cz-[M(Lig)] from Lig and M^III ions (metal dependent click-zip) (Charts 4, 5); assay type: physicochemical; conditions: MOPS/NaOH buffer pH 7.0, TD728, TD827 in 50% i-PrOH; for conversion to 1,5-cz-[M(Lig)], Y^III: TD714 sum of two diastereoisomers

With `C#Cc1cccc(CN2CCN(CC(N)=O)CCN(Cc3cc(-c4ccccc4)cc(CN=[N+]=[N-])n3)CCN(CC(N)=O)CC2)n1` [TD779] the “conversion to 1,5-cz-[Ln(Lig)], Ce^III” value ([1]; after 1 week at 80° C.) was 0%, the “conversion to 1,5-cz-[Ln(Lig)], Ce^III” value ([1]; after 1 hour at 80° C.) was 0% and the “conversion to 1,5-cz-[Ln(Lig)], Dy^III” value ([1]; after 1 week at 80° C.) was 0%. The “conversion to 1,5-cz-[Ln(Lig)], Dy^III” value ([1]; after 1 hour at 80° C.) was 8%, the “conversion to 1,5-cz-[Ln(Lig)], Er^III” value ([1]; after 1 week at 80° C.) was 0% and the “conversion to 1,5-cz-[Ln(Lig)], Er^III” value ([1]; after 1 hour at 80° C.) was 12%. For the same compound, the “conversion to 1,5-cz-[Ln(Lig)], Eu^III” value ([1]; after 1 week at 80° C.) was 0%, the “conversion to 1,5-cz-[Ln(Lig)], Eu^III” value ([1]; after 1 hour at 80° C.) was 2% and the “conversion to 1,5-cz-[Ln(Lig)], Gd^III” value ([1]; after 1 week at 80° C.) was 0%. For the same compound, the “conversion to 1,5-cz-[Ln(Lig)], Gd^III” value ([1]; after 1 hour at 80° C.) was 3%, the “conversion to 1,5-cz-[Ln(Lig)], Ho^III” value ([1]; after 1 week at 80° C.) was 0% and the “conversion to 1,5-cz-[Ln(Lig)], Ho^III” value ([1]; after 1 hour at 80° C.) was 10%. The “conversion to 1,5-cz-[Ln(Lig)], La^III” value ([1]; after 1 week at 80° C.) was 0%, the “conversion to 1,5-cz-[Ln(Lig)], La^III” value ([1]; after 1 hour at 80° C.) was 0% and the “conversion to 1,5-cz-[Ln(Lig)], Lu^III” value ([1]; after 1 week at 80° C.) was 0%. For the same compound, the “conversion to 1,5-cz-[Ln(Lig)], Lu^III” value ([1]; after 1 hour at 80° C.) was 5%, the “conversion to 1,5-cz-[Ln(Lig)], Nd^III” value ([1]; after 1 week at 80° C.) was 0% and the “conversion to 1,5-cz-[Ln(Lig)], Nd^III” value ([1]; after 1 hour at 80° C.) was 0%. For the same compound, the “conversion to 1,5-cz-[Ln(Lig)], Pr^III” value ([1]; after 1 week at 80° C.) was 0%, the “conversion to 1,5-cz-[Ln(Lig)], Pr^III” value ([1]; after 1 hour at 80° C.) was 0% and the “conversion to 1,5-cz-[Ln(Lig)], Sm^III” value ([1]; after 1 week at 80° C.) was 0%. For the same compound, the “conversion to 1,5-cz-[Ln(Lig)], Sm^III” value ([1]; after 1 hour at 80° C.) was 1%, the “conversion to 1,5-cz-[Ln(Lig)], Tb^III” value ([1]; after 1 week at 80° C.) was 0% and the “conversion to 1,5-cz-[Ln(Lig)], Tb^III” value ([1]; after 1 hour at 80° C.) was 6%. For the same compound, the “conversion to 1,5-cz-[Ln(Lig)], Tm^III” value ([1]; after 1 week at 80° C.) was 0%, the “conversion to 1,5-cz-[Ln(Lig)], Tm^III” value ([1]; after 1 hour at 80° C.) was 9% and the “conversion to 1,5-cz-[Ln(Lig)], Yb^III” value ([1]; after 1 week at 80° C.) was 0%. The “conversion to 1,5-cz-[Ln(Lig)], Yb^III” value ([1]; after 1 hour at 80° C.) was 9%, the “conversion to 1,5-cz-[M(Lig)], Sc^III” value ([2]; 1 week at 80° C.) was 0% and the “conversion to 1,5-cz-[M(Lig)], Y^III” value ([2]; 1 week at 80° C.) was 0%. The “conversion to 1,5-cz-[M(Lig)], Sc^III” value ([2]; 1 hour at 80° C.) was 0% and the “conversion to 1,5-cz-[M(Lig)], Y^III” value ([2]; 1 hour at 80° C.) was 4%.
